# From ChEMBL document CHEMBL1201861, “Genomics of Drug Sensitity in Cancer screening data, Wellcome Trust Sanger Institute”
# pIC50: −log10 of the molar value. Where “and” joins values, the source holds several entries; their conditions need not be identical. Equal entries are not always repeated. Where a SMILES comes first, the peptide text is derived from it. The star is where a group is joined. Cbz = O=C(OCc1ccccc1)*
# Tested on: EVSA-T;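 also: growth inhibition of EVSA-T cells, read out with a cell viability assay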
# Assay: cells
# Type: functional, cell-based, Homo sapiens
# Conditions: Homo sapiens, EVSA-T
# Description: SANGER: Inhibition of human EVSA-T cell growth in a cell viability assay.
row,Compound,pIC50
1,C=CC(=O)N1CCCC(Nc2nc(Nc3ccc(N(C)C(=O)CC)cc3)nc3[nH]cnc23)C1 (centres undefined),< 4.99
2,COc1cc(N2CCC(N3CCN(C)CC3)CC2)ccc1Nc1ncc(Cl)c(Nc2ccccc2S(=O)(=O)C(C)C)n1 [TAE-684],< 5.70
3,Nc1ccccc1NC(=O)c1ccc(CNC(=O)OCc2cccnc2)cc1 [ENTINOSTAT],5.93
4,CC(C)C[C@H](NC(=O)[C@H](Cc1ccccc1)NC(=O)c1cnccn1)B(O)O [BORTEZOMIB],8.44

# Same assay, conditions: evsa-t
row,Compound,pIC50
1,CC(C)C[C@@H](C=O)NC(=O)[C@H](CC(C)C)NC(=O)[C@H](CC(C)C)NC(=O)OCc1ccccc1 [MG-132] (Cbz-Leu-Leu-Leu-aldehyde),6.30 and < 6.00

# Tested on: P31-FUJ;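 also: growth inhibition of P31-FUJ cells, read out with a viability assay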
# Assay: cells
# Type: functional, cell-based, Homo sapiens
# Conditions: Homo sapiens, P31-FUJ
# Description: SANGER: Inhibition of human P31-FUJ cell growth in a cell viability assay.
row,Compound,pIC50
1,C=CC(=O)N1CCCC(Nc2nc(Nc3ccc(N(C)C(=O)CC)cc3)nc3[nH]cnc23)C1 (centres undefined),< 4.99
2,COc1cc(N2CCC(N3CCN(C)CC3)CC2)ccc1Nc1ncc(Cl)c(Nc2ccccc2S(=O)(=O)C(C)C)n1 [TAE-684],< 5.70
3,Nc1ccccc1NC(=O)c1ccc(CNC(=O)OCc2cccnc2)cc1 [ENTINOSTAT],< 5.30
4,CC(C)C[C@H](NC(=O)[C@H](Cc1ccccc1)NC(=O)c1cnccn1)B(O)O [BORTEZOMIB],< 7.70

# Same assay, conditions: p31-fuj
row,Compound,pIC50
1,CC(C)C[C@@H](C=O)NC(=O)[C@H](CC(C)C)NC(=O)[C@H](CC(C)C)NC(=O)OCc1ccccc1 [MG-132] (Cbz-Leu-Leu-Leu-aldehyde),< 6.00

# Tested on: NCI-H187;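 also: growth inhibition of NCI-H187 cells, read out as cell viability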
# Assay: cells
# Type: functional, cell-based, Homo sapiens
# Conditions: Homo sapiens, NCI-H187
# Description: SANGER: Inhibition of human NCI-H187 cell growth in a cell viability assay.
row,Compound,pIC50
1,C=CC(=O)N1CCCC(Nc2nc(Nc3ccc(N(C)C(=O)CC)cc3)nc3[nH]cnc23)C1 (centres undefined),< 4.99
2,COc1cc(N2CCC(N3CCN(C)CC3)CC2)ccc1Nc1ncc(Cl)c(Nc2ccccc2S(=O)(=O)C(C)C)n1 [TAE-684],5.77
3,Nc1ccccc1NC(=O)c1ccc(CNC(=O)OCc2cccnc2)cc1 [ENTINOSTAT],6.31
4,CC(C)C[C@H](NC(=O)[C@H](Cc1ccccc1)NC(=O)c1cnccn1)B(O)O [BORTEZOMIB],< 7.70

# Same assay, conditions: nci-h187
row,Compound,pIC50
1,CC(C)C[C@@H](C=O)NC(=O)[C@H](CC(C)C)NC(=O)[C@H](CC(C)C)NC(=O)OCc1ccccc1 [MG-132] (Cbz-Leu-Leu-Leu-aldehyde),< 6.00

# Tested on: DMS-79
# Assay: cells
# Type: functional, cell-based, Homo sapiens
# Conditions: Homo sapiens, DMS-79
# Description: SANGER: Inhibition of human DMS-79 cell growth in a cell viability assay.
row,Compound,pIC50
1,C=CC(=O)N1CCCC(Nc2nc(Nc3ccc(N(C)C(=O)CC)cc3)nc3[nH]cnc23)C1 (centres undefined),< 4.99
2,COc1cc(N2CCC(N3CCN(C)CC3)CC2)ccc1Nc1ncc(Cl)c(Nc2ccccc2S(=O)(=O)C(C)C)n1 [TAE-684],< 5.70
3,Nc1ccccc1NC(=O)c1ccc(CNC(=O)OCc2cccnc2)cc1 [ENTINOSTAT],5.59
4,CC(C)C[C@H](NC(=O)[C@H](Cc1ccccc1)NC(=O)c1cnccn1)B(O)O [BORTEZOMIB],< 7.70

# Same assay, conditions: dms-79
row,Compound,pIC50
1,CC(C)C[C@@H](C=O)NC(=O)[C@H](CC(C)C)NC(=O)[C@H](CC(C)C)NC(=O)OCc1ccccc1 [MG-132] (Cbz-Leu-Leu-Leu-aldehyde),< 6.00

# Tested on: EW-22;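 also: growth inhibition of the EW-22 cell line, measured with a cell viability readout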
# Assay: cells
# Type: functional, cell-based
# Conditions: Homo sapiens
# Description: SANGER: Inhibition of human EW-22 cell growth in a cell viability assay.
row,Compound,pIC50
1,COc1cc(N2CCC(N3CCN(C)CC3)CC2)ccc1Nc1ncc(Cl)c(Nc2ccccc2S(=O)(=O)C(C)C)n1 [TAE-684],< 5.70
2,Nc1ccccc1NC(=O)c1ccc(CNC(=O)OCc2cccnc2)cc1 [ENTINOSTAT],< 5.30
3,CC(C)C[C@@H](C=O)NC(=O)[C@H](CC(C)C)NC(=O)[C@H](CC(C)C)NC(=O)OCc1ccccc1 [MG-132] (Cbz-Leu-Leu-Leu-aldehyde),< 6.00
4,CC(C)C[C@H](NC(=O)[C@H](Cc1ccccc1)NC(=O)c1cnccn1)B(O)O [BORTEZOMIB],< 7.70

# Tested on: HC-1;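 also: growth inhibition of HC-1 cells measured by a cell viability assay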
# Assay: cells
# Type: functional, cell-based, Homo sapiens
# Conditions: Homo sapiens, HC-1
# Description: SANGER: Inhibition of human HC-1 cell growth in a cell viability assay.
row,Compound,pIC50
1,C=CC(=O)N1CCCC(Nc2nc(Nc3ccc(N(C)C(=O)CC)cc3)nc3[nH]cnc23)C1 (centres undefined),< 4.99
2,COc1cc(N2CCC(N3CCN(C)CC3)CC2)ccc1Nc1ncc(Cl)c(Nc2ccccc2S(=O)(=O)C(C)C)n1 [TAE-684],< 5.70
3,Nc1ccccc1NC(=O)c1ccc(CNC(=O)OCc2cccnc2)cc1 [ENTINOSTAT],6.30
4,CC(C)C[C@H](NC(=O)[C@H](Cc1ccccc1)NC(=O)c1cnccn1)B(O)O [BORTEZOMIB],9.01

# Same assay, conditions: hc-1
row,Compound,pIC50
1,CC(C)C[C@@H](C=O)NC(=O)[C@H](CC(C)C)NC(=O)[C@H](CC(C)C)NC(=O)OCc1ccccc1 [MG-132] (Cbz-Leu-Leu-Leu-aldehyde),< 6.00

# Tested on: NCCIT
# Assay: SANGER: Inhibition of human NCCIT cell growth in a cell viability assay.
# Type: functional, cell-based
# Conditions: Homo sapiens, NCCIT
row,Compound,pIC50
1,C=CC(=O)N1CCCC(Nc2nc(Nc3ccc(N(C)C(=O)CC)cc3)nc3[nH]cnc23)C1 (centres undefined),< 4.99
2,COc1cc(N2CCC(N3CCN(C)CC3)CC2)ccc1Nc1ncc(Cl)c(Nc2ccccc2S(=O)(=O)C(C)C)n1 [TAE-684],< 5.70
3,Nc1ccccc1NC(=O)c1ccc(CNC(=O)OCc2cccnc2)cc1 [ENTINOSTAT],6.41
4,CC(C)C[C@H](NC(=O)[C@H](Cc1ccccc1)NC(=O)c1cnccn1)B(O)O [BORTEZOMIB],7.74

# Same assay, conditions: nccit
row,Compound,pIC50
1,CC(C)C[C@@H](C=O)NC(=O)[C@H](CC(C)C)NC(=O)[C@H](CC(C)C)NC(=O)OCc1ccccc1 [MG-132] (Cbz-Leu-Leu-Leu-aldehyde),6.50 and < 6.00

# Tested on: BL-41;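 also: growth inhibition of human BL-41 cells, read out with a cell viability assay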
# Assay: cells
# Type: functional, cell-based
# Conditions: Homo sapiens
# Description: SANGER: Inhibition of human BL-41 cell growth in a cell viability assay.
row,Compound,pIC50
1,C=CC(=O)N1CCCC(Nc2nc(Nc3ccc(N(C)C(=O)CC)cc3)nc3[nH]cnc23)C1 (centres undefined),< 4.99
2,COc1cc(N2CCC(N3CCN(C)CC3)CC2)ccc1Nc1ncc(Cl)c(Nc2ccccc2S(=O)(=O)C(C)C)n1 [TAE-684],5.75
3,Nc1ccccc1NC(=O)c1ccc(CNC(=O)OCc2cccnc2)cc1 [ENTINOSTAT],6.24
4,CC(C)C[C@H](NC(=O)[C@H](Cc1ccccc1)NC(=O)c1cnccn1)B(O)O [BORTEZOMIB],8.90

# Tested on: NALM-6;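 also: growth inhibition of NALM-6 cells, read out with a cell viability assay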
# Assay: cells
# Type: functional, cell-based, Homo sapiens
# Conditions: Homo sapiens, NALM-6
# Description: SANGER: Inhibition of human NALM-6 cell growth in a cell viability assay.
row,Compound,pIC50
1,C=CC(=O)N1CCCC(Nc2nc(Nc3ccc(N(C)C(=O)CC)cc3)nc3[nH]cnc23)C1 (centres undefined),< 4.99
2,COc1cc(N2CCC(N3CCN(C)CC3)CC2)ccc1Nc1ncc(Cl)c(Nc2ccccc2S(=O)(=O)C(C)C)n1 [TAE-684],6.04
3,Nc1ccccc1NC(=O)c1ccc(CNC(=O)OCc2cccnc2)cc1 [ENTINOSTAT],6.19
4,CC(C)C[C@@H](C=O)NC(=O)[C@H](CC(C)C)NC(=O)[C@H](CC(C)C)NC(=O)OCc1ccccc1 [MG-132] (Cbz-Leu-Leu-Leu-aldehyde),< 6.00
5,CC(C)C[C@H](NC(=O)[C@H](Cc1ccccc1)NC(=O)c1cnccn1)B(O)O [BORTEZOMIB],8.35

# Same assay, conditions: nalm-6
row,Compound,pIC50
1,CC(C)C[C@@H](C=O)NC(=O)[C@H](CC(C)C)NC(=O)[C@H](CC(C)C)NC(=O)OCc1ccccc1 [MG-132] (Cbz-Leu-Leu-Leu-aldehyde),< 6.00

# Tested on: HCC1599;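 also: growth inhibition of HCC1599 cells, read out in a cell viability assay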
# Assay: cells
# Type: functional, cell-based, Homo sapiens
# Conditions: Homo sapiens, HCC1599
# Description: SANGER: Inhibition of human HCC1599 cell growth in a cell viability assay.
row,Compound,pIC50
1,C=CC(=O)N1CCCC(Nc2nc(Nc3ccc(N(C)C(=O)CC)cc3)nc3[nH]cnc23)C1 (centres undefined),< 4.99
2,COc1cc(N2CCC(N3CCN(C)CC3)CC2)ccc1Nc1ncc(Cl)c(Nc2ccccc2S(=O)(=O)C(C)C)n1 [TAE-684],< 5.70
3,Nc1ccccc1NC(=O)c1ccc(CNC(=O)OCc2cccnc2)cc1 [ENTINOSTAT],6.29
4,CC(C)C[C@H](NC(=O)[C@H](Cc1ccccc1)NC(=O)c1cnccn1)B(O)O [BORTEZOMIB],7.92

# Same assay, conditions: hcc1599
row,Compound,pIC50
1,CC(C)C[C@@H](C=O)NC(=O)[C@H](CC(C)C)NC(=O)[C@H](CC(C)C)NC(=O)OCc1ccccc1 [MG-132] (Cbz-Leu-Leu-Leu-aldehyde),< 6.00

# Tested on: NCI-H719;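 also: growth inhibition of the cultured cell line, read out with a viability assay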
# Assay: cells
# Type: functional, cell-based, Homo sapiens
# Conditions: Homo sapiens, NCI-H719
# Description: SANGER: Inhibition of human NCI-H719 cell growth in a cell viability assay.
row,Compound,pIC50
1,C=CC(=O)N1CCCC(Nc2nc(Nc3ccc(N(C)C(=O)CC)cc3)nc3[nH]cnc23)C1 (centres undefined),< 4.99
2,COc1cc(N2CCC(N3CCN(C)CC3)CC2)ccc1Nc1ncc(Cl)c(Nc2ccccc2S(=O)(=O)C(C)C)n1 [TAE-684],< 5.70
3,Nc1ccccc1NC(=O)c1ccc(CNC(=O)OCc2cccnc2)cc1 [ENTINOSTAT],5.93
4,CC(C)C[C@H](NC(=O)[C@H](Cc1ccccc1)NC(=O)c1cnccn1)B(O)O [BORTEZOMIB],< 7.70

# Same assay, conditions: nci-h719
row,Compound,pIC50
1,CC(C)C[C@@H](C=O)NC(=O)[C@H](CC(C)C)NC(=O)[C@H](CC(C)C)NC(=O)OCc1ccccc1 [MG-132] (Cbz-Leu-Leu-Leu-aldehyde),< 6.00

# Tested on: NCI-H889;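 also: cell growth inhibition of the cell line, read out with a viability assay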
# Assay: cells
# Type: functional, cell-based, Homo sapiens
# Conditions: Homo sapiens, NCI-H889
# Description: SANGER: Inhibition of human NCI-H889 cell growth in a cell viability assay.
row,Compound,pIC50
1,C=CC(=O)N1CCCC(Nc2nc(Nc3ccc(N(C)C(=O)CC)cc3)nc3[nH]cnc23)C1 (centres undefined),< 4.99
2,COc1cc(N2CCC(N3CCN(C)CC3)CC2)ccc1Nc1ncc(Cl)c(Nc2ccccc2S(=O)(=O)C(C)C)n1 [TAE-684],< 5.70
3,Nc1ccccc1NC(=O)c1ccc(CNC(=O)OCc2cccnc2)cc1 [ENTINOSTAT],< 5.30
4,CC(C)C[C@H](NC(=O)[C@H](Cc1ccccc1)NC(=O)c1cnccn1)B(O)O [BORTEZOMIB],< 7.70

# Same assay, conditions: nci-h889
row,Compound,pIC50
1,CC(C)C[C@@H](C=O)NC(=O)[C@H](CC(C)C)NC(=O)[C@H](CC(C)C)NC(=O)OCc1ccccc1 [MG-132] (Cbz-Leu-Leu-Leu-aldehyde),< 6.00

# Tested on: IST-SL2;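 also: growth inhibition of human IST-SL2 cells, read out by a cell viability assay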
# Assay: cells
# Type: functional, cell-based, Homo sapiens
# Conditions: Homo sapiens, IST-SL2
# Description: SANGER: Inhibition of human IST-SL2 cell growth in a cell viability assay.
row,Compound,pIC50
1,C=CC(=O)N1CCCC(Nc2nc(Nc3ccc(N(C)C(=O)CC)cc3)nc3[nH]cnc23)C1 (centres undefined),< 4.99
2,COc1cc(N2CCC(N3CCN(C)CC3)CC2)ccc1Nc1ncc(Cl)c(Nc2ccccc2S(=O)(=O)C(C)C)n1 [TAE-684],< 5.70
3,Nc1ccccc1NC(=O)c1ccc(CNC(=O)OCc2cccnc2)cc1 [ENTINOSTAT],5.70
4,CC(C)C[C@H](NC(=O)[C@H](Cc1ccccc1)NC(=O)c1cnccn1)B(O)O [BORTEZOMIB],8.88

# Same assay, conditions: ist-sl2
row,Compound,pIC50
1,CC(C)C[C@@H](C=O)NC(=O)[C@H](CC(C)C)NC(=O)[C@H](CC(C)C)NC(=O)OCc1ccccc1 [MG-132] (Cbz-Leu-Leu-Leu-aldehyde),< 6.00

# Tested on: WSU-NHL;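 also: growth inhibition of human WSU-NHL cells, read out with a cell viability assay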
# Assay: cells
# Type: functional, cell-based, Homo sapiens
# Conditions: Homo sapiens, WSU-NHL
# Description: SANGER: Inhibition of human WSU-NHL cell growth in a cell viability assay.
row,Compound,pIC50
1,C=CC(=O)N1CCCC(Nc2nc(Nc3ccc(N(C)C(=O)CC)cc3)nc3[nH]cnc23)C1 (centres undefined),< 4.99
2,COc1cc(N2CCC(N3CCN(C)CC3)CC2)ccc1Nc1ncc(Cl)c(Nc2ccccc2S(=O)(=O)C(C)C)n1 [TAE-684],< 5.70
3,Nc1ccccc1NC(=O)c1ccc(CNC(=O)OCc2cccnc2)cc1 [ENTINOSTAT],< 5.30
4,CC(C)C[C@H](NC(=O)[C@H](Cc1ccccc1)NC(=O)c1cnccn1)B(O)O [BORTEZOMIB],< 7.70

# Same assay, conditions: wsu-nhl
row,Compound,pIC50
1,CC(C)C[C@@H](C=O)NC(=O)[C@H](CC(C)C)NC(=O)[C@H](CC(C)C)NC(=O)OCc1ccccc1 [MG-132] (Cbz-Leu-Leu-Leu-aldehyde),< 6.00

# Tested on: MFH-ino;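 also: growth inhibition of human MFH-ino cells, read out by a cell viability assay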
# Assay: cells
# Type: functional, cell-based, Homo sapiens
# Conditions: Homo sapiens, MFH-ino
# Description: SANGER: Inhibition of human MFH-ino cell growth in a cell viability assay.
row,Compound,pIC50
1,C=CC(=O)N1CCCC(Nc2nc(Nc3ccc(N(C)C(=O)CC)cc3)nc3[nH]cnc23)C1 (centres undefined),< 4.99
2,COc1cc(N2CCC(N3CCN(C)CC3)CC2)ccc1Nc1ncc(Cl)c(Nc2ccccc2S(=O)(=O)C(C)C)n1 [TAE-684],6.49
3,Nc1ccccc1NC(=O)c1ccc(CNC(=O)OCc2cccnc2)cc1 [ENTINOSTAT],5.46
4,CC(C)C[C@H](NC(=O)[C@H](Cc1ccccc1)NC(=O)c1cnccn1)B(O)O [BORTEZOMIB],9.35

# Same assay, conditions: mfh-ino
row,Compound,pIC50
1,CC(C)C[C@@H](C=O)NC(=O)[C@H](CC(C)C)NC(=O)[C@H](CC(C)C)NC(=O)OCc1ccccc1 [MG-132] (Cbz-Leu-Leu-Leu-aldehyde),< 6.00 and 6.95
